This is an account of results in EP0185130A1, “5-Alkoxy-2,4,6-triodo or tribromo-isophthalic-acid derivatives, process for their preparation and X-ray contrast agents containing them” (BRACCO INDUSTRIA CHIMICA Società per Azioni, priority 1984, dated 1986).

Converted amounts (≈) assume the structure as drawn. Read-outs that look alike come from different tables or passages of the source. A value given as a limit tells only on which side of the number the result lay.

The series is described as follows: Water solubility. To be noted: for solubility: water, read-out: Wasserlöslichkeit; for Wasserlöslichkeit: result in words, no temperature stated. Type of series: physicochemical.

For the compound `CC(Oc1c(I)c(C(=O)NC(CO)CO)c(I)c(C(=O)NC(CO)CO)c1I)C(=O)N(CCO)CCO` (racemic) [Beispiel 18], the solubility (bei 25 °C) was over 1000 mg/mL.

As for `CCOCCOCCOc1c(I)c(C(=O)NC(CO)CO)c(I)c(C(=O)NC(CO)CO)c1I` [Beispiel 1, 5-(3,6-Dioxaoctyl)oxy-2,4,6-trijodisophthalsäure-bis(1,3-dihydroxyiso-propylamid)], the solubility was found to be 60 mg/mL (≈ 73 mM) (bei 20 °C) and 1000 mg/mL (≈ 1220 mM) (bei Siedetemperatur).

Turning to `O=C(NC(CO)CO)c1c(I)c(OCCCOCCOCCOCCOCCCO)c(I)c(C(=O)NC(CO)CO)c1I` [Beispiel 6, 5-(16-Hydroxy-4,7,10,13-tetraoxahexadecyl)oxy-2,4,6-trijod-isophthalsäure-bis(1,3-dihydroxyisopropylamid)], for the setting “bei 20 °C”, the solubility was over 1000 mg/mL.

`O=C(NC(CO)CO)c1c(I)c(OCC(O)CO)c(I)c(C(=O)NC(CO)CO)c1I` (centres unmarked) [Beispiel 8, 5-(2,3-Dihydroxypropyl)oxy-2,4,6-trijodisophthalsäure-bis(1,3-dihydroxy-isopropylamid)]: the Wasserlöslichkeit entry is given as “löslich in Wasser”.

As to `O=C(NC(CO)CO)c1c(I)c(OC(CO)CO)c(I)c(C(=O)NC(CO)CO)c1I` [Beispiel 9, 5-(1,3-Dihydroxyisopropyl)oxy-2,4,6-trijodisophthalsäure-bis(1,3-di-hydroxyisopropylamid)], the Wasserlöslichkeit result is reported as “in Wasser leicht löslich”.

Turning to `O=C(NC(CO)CO)c1c(I)c(OCC(CO)(CO)CO)c(I)c(C(=O)NC(CO)CO)c1I` [Beispiel 10, 5-(2,2-Bis-(hydroxymethyl)-3-hydroxypropyl)oxy-2,4,6-trijodisophthal-säure-bis(1,3-dihydroxyisopropylamid)], the Wasserlöslichkeit entry is on record as “spielend leicht wasserlöslich”.

In the case of `CNC(=O)COc1c(I)c(C(=O)NC(CO)CO)c(I)c(C(=O)NC(CO)CO)c1I` [Beispiel 11, 5-Methylaminocarbonylmethoxy-2,4,6-trijod-isophthalsäure-bis(1,3-di-hydroxyisopropylamid)], the solubility (bei Siedetemperatur) came to 100 mg/mL (≈ 129 mM).

With `O=C(COc1c(Br)c(C(=O)NC(CO)CO)c(Br)c(C(=O)NC(CO)CO)c1Br)NC(CO)CO` [Beispiel 12, 5-(1,3-Dihydroxyisopropylaminocarbonyl)methoxy-2,4,6-tribromisophthal-säure-bis(1,3-dihydroxyisopropylamid)], the solubility (bei 20 °C) is over 1000 mg/mL.

For `C[C@@H](Oc1c(I)c(C(=O)NC(CO)CO)c(I)c(C(=O)NC(CO)CO)c1I)C(=O)NC(CO)CO` [Beispiel 14, R(-)-5-(1(1,3-Dihydroxyisopropylaminocarbonyl)ethoxy)-2,4,6-trijodiso-phthalsäure-bis(1,3-dihydroxyisopropylamid)], the Wasserlöslichkeit result was “gering”.

For the compound `CC(CO)(CO)NC(=O)COc1c(I)c(C(=O)NC(CO)CO)c(I)c(C(=O)NC(CO)CO)c1I` [Beispiel 15, 5-(1,3-Dihydroxy-2-methylisopropylaminocarbonyl)methoxy-2,4,6-trijodiso-phthalsäure-bis(1,3-dihydroxyisopropylamid)], the solubility stood at 16 mg/mL (≈ 18.8 mM) (bei 20 °C) and 1000 mg/mL (≈ 1170 mM) (bei Siedetemperatur).

`C[C@@H](Oc1c(I)c(C(=O)NC(CO)CO)c(I)c(C(=O)NC(CO)CO)c1I)C(=O)NC(CO)(CO)CO` [Beispiel 16, R(-)-5(1(1,3-Dihydroxy-2-hydroxymethyl-isopropylaminocarbonyl)ethoxy)-2,4,6-trijodisophthalsäure-bis(1,3-dihydroxyisopropylamid)]: the solubility by setting is: (bei 25 °C) 25 mg/mL (≈ 28.4 mM); (bei 100 °C) 1000 mg/mL (≈ 1130 mM).

As to `O=C(NC(CO)CO)c1c(I)c(OCC(=O)N(CCO)CCO)c(I)c(C(=O)NC(CO)CO)c1I` [Beispiel 17], the solubility (bei 25 °C) was over 1000 mg/mL.

With `CN(CC(O)CO)C(=O)COc1c(I)c(C(=O)NC(CO)CO)c(I)c(C(=O)NC(CO)CO)c1I` (centres unmarked) [Beispiel 19, 5-(N-Methyl-N-2,3-dihydroxypropyl)aminocarbonylmethoxy-2,4,6-trijodiso-phthalsäure-bis-(1,3-dihydroxyisopropylamid)], the solubility (bei 20 °C) is over 1000 mg/mL.

For the compound `CC(Oc1c(I)c(C(=O)NC(CO)CO)c(I)c(C(=O)NC(CO)CO)c1I)C(=O)N(C)CC(O)CO` (centres unmarked) [Beispiel 20 R,S], the solubility (bei 20 °C) is over 1000 mg/mL.
